Experimental findings from patent US7741520B2, “Sulfonanilide analogs as selective aromatase modulators (SAMs)” (The Ohio State University Research Foundation, priority 2006, dated 2010) are described below.

The subject of series [1] is CYP19 mRNA expression in SK-BR-3 cells. The series is described as follows: CYP19 mRNA expression by real-time RT-PCR in SK-BR-3 cells. Type of series: cell-based, human. The note with it: 5 μM, 24 h (FIG. 14). Here is the method: RNA Extraction. Total RNA was isolated using the TRIzol reagent according to the manufacturer's protocol. Total RNA pellets were dissolved in DNase- and RNase-free water and quantitated using a spectrophotometer. The quality of RNA samples was determined by electrophoresis through agarose gels and staining with ethidium bromide; the 18S and 28S rRNA bands were visualized under ultraviolet light.
(§1) cDNA Synthesis. Isolated total RNA (2 μg) was treated with DNase I Amplification grade, according to the recommended protocol to eliminate any DNA before reverse transcription. Treated total RNA was denatured at 65° C. for 5 min in the presence of 2.5 ng/μL random hexamers and 0.5 mM dNTP mix. The samples were snap-cooled on ice and centrifuged briefly. Complementary DNA (cDNA) was synthesized using Superscript II reverse transcriptase according to the recommended protocol. Briefly, the reactions were conducted in the presence of 1× First-Strand Buffer and 20 mM DTT at 42° C. for 50 min and consequently inactivated at 70° C. for 15 min. The cDNA generated was used as a template in realtime PCR reactions.
Real-Time PCR. Real-time PCR was performed using the Opticon 2 system from MJ Research (Waltham, Mass.). For the CYP19 total gene the PCR reaction mixture consisted of Taqman Universal PCR Master Mix (Applied Biosystems), 600 nM of CYP19 primer (sense: 5′-TGTCTCTTTGTTCTTCATGCTATTTCTC-3′ (SEQ ID NO: 1); antisense: 5′-TCACCAATAACAGTCTGGATTTCC-3′) (SEQ ID NO: 2); 250 nM Taqman probe (6FAM 5′-TGCAAAGCACCCTAATGTTGAAGAGGCAAT-3′TAMRA) (SEQ ID NO: 3) (Invitrogen), 18S rRNA (Applied Biosystems, Foster City, Calif.), and 2.0 μL of each RT sample in a final volume of 20 μL. The Taqman probe was designed to anneal to a specific sequence of the aromatase gene between the forward and the reverse primers. Cycling conditions were 50° C. for 2 mm and 95° C. for 10 mm, followed by 50 cycles at 95° C. for 15 s and 60° C. for 1 mm.
RNA extraction. Total RNA was isolated using the TRIzol reagent according to the manufacturer's protocol. Total RNA pellets were dissolved in DNase, RNase-free water and quantitated using a spectrophotometer. The quality of RNA samples was determined by electrophoresis through agarose gels and staining with ethidium bromide; the 18S and 28S rRNA bands were visualized under ultraviolet light.
as §1, with “synthesis.” for “Synthesis.”, “real-time” for “realtime”
Real-time PCR. Real-time PCR was performed using the Opticon™ 2 system from MJ Research (Waltham, Mass.). For the CYP19 total gene the PCR reaction mixture consisted of Taqman® Universal PCR Master Mix (Applied Biosystems), 600 nM of CYP19 primer (sense: 5′-TGTCTCTTTGTTCTTCATGCTATTTCTC-3′ (SEQ ID NO: 1); antisense: 5′-TCACCAATAACAGTCTGGATTTCC-3′) (SEQ ID NO: 2); 250 nM Taqman probe (6FAM 5′-TGCAAAGCACCCTAATGTTGAAGAGGCAAT-3′TAMRA) (SEQ ID NO: 3) (Invitrogen), and 2.0 μL of each cDNA sample in a final volume of 20 μL. […]

In series [2] the test system is SK-BR-3 cells. In words: Cell viability analysis (MTT assay) in SK-BR-3 cells. Type of series: cell-based, human. The note with it: 10 μM (FIG. 15). As for the experimental part: Cell Viability Analysis. The effect of nimesulides derivatives on SK-BR-3 cell viability was assessed by using the 3-(4,5-dimethylthiazol-2-yl)-2,5-diphenyl-2H-tetrazolium bromide assay in six replicates. Cells were grown in custom media in 96-well, flat-bottomed plates for 24 h, and were exposed to various concentrations of nimesulide derivatives dissolved in DMSO (final concentration ≦0.1%) in define media for different time intervals. Controls received DMSO vehicle at a concentration equal to that in drug-treated cells. The medium was removed, replaced by 200 μl of 0.5 mg/ml of 3-(4,5-dimethylthiazol-2-yl)-2,5-diphenyl-2H-tetrazolium bromide in fresh media, and cells were incubated in the CO2 incubator at 37° C. for 2 h. Supernatants were removed from the wells, and the reduced 3-(4,5-dimethylthiazol-2-yl)-2,5-diphenyl-2H-tetrazolium bromide dye was solubilized in 200 μl/well DMSO. Absorbance at 570 nm was determined on a plate reader.

Series [3] has as its system SK-BR-3 cells. In words: Analysis of apoptosis (single-stranded DNA ELISA) in SK-BR-3 cells. Type of series: cell-based, human. The note with it: 5 μM, 24 hours (FIG. 16). As for the experimental part: Analysis of apoptosis. Apoptosis was determined by selective denaturation of DNA in apoptotic cells by formamide and detection of denatured DNA with a monoclonal antibody to single-stranded DNA using an ELISA kit (CHEMICON, Temecula, Calif.). Cells were plated in a 96-well flat bottom plate from 0.5×10^4 to 1×10^4 cells/well in custom media. Cells were allowed to adhere to wells overnight. Following incubation, compounds were made up in define media and a 5 μM screen was performed in each cell line with respective compounds in triplicate for 24 hours. Following treatment, the plate was centrifuged at 200×g for 5 min, media was removed followed by the addition of 200 μl of fixative. The plate was incubated for 30 min at 37° C., at which point the fixative was removed and the plate dried for 1-2 hours at room temperature. Fifty microliters of formamide was added to each well following a brief incubation at room temperature for 10 min. The DNA in apoptotic cells was denatured by heating the plate for 10 min, then briefly cooling the plate for 5 min at 4° C. following removal of formamide. The plate was rinsed three times with 200 μl of PBS following one hour incubation at 37° C. with 200 μl of 3% blocking agent. After removal of the blocking agent, 100 μl of antibody mixture were added to each well for 30 min at room temperature. The plate was washed three times with 1× wash buffer using 250 μl of wash buffer/well followed by the addition of 200 μl of ABTS solution added to each well for a 15-60 minute incubation. The reaction was stopped by the addition of 100 μl of a stop solution added to each well and absorbance was measured at 405 nm on a SpectroMax 340 UV PlateReader.
(In general: An ELISA detects its analyte on a solid surface through an enzyme-linked reagent.)

Regarding `CN(c1ccc([N+](=O)[O-])cc1OCc1ccccc1)S(C)(=O)=O` [Compound 26f, N-methyl-N-(2-benzyloxy-4-nitrophenyl) methanesulfonamide], in series [1], the CYP19 gene expression result was “significantly decreased CYP19 gene expression”. Moreover, the “cell cytotoxicity (MTT)” value in the series on SK-BR-3 cells [2] is listed as “did not cause significant cell cytotoxicity”. Besides, the apoptotic effects result with SK-BR-3 cells [3] is reported as “do not produce apoptotic effects”.
On to `CN(c1ccc([N+](=O)[O-])cc1OCc1ccc([N+](=O)[O-])cc1)S(C)(=O)=O` [Compound 27c, N-methyl-N-[2-(4′-nitrobenzyloxy)-4-nitrophenyl]methanesulfonamide], for which, in series [1], the CYP19 gene expression result is on record as “significantly decreased CYP19 gene expression”. For the same compound, in the series on SK-BR-3 cells [2], the “cell cytotoxicity (MTT)” value was “did not cause significant cell cytotoxicity”. For the same compound, the apoptotic effects result with SK-BR-3 cells [3] was “do not produce apoptotic effects”.
Usually melting point stands for the temperature of the solid-liquid transition. Take `CN(c1ccc([N+](=O)[O-])cc1OCc1ccc2ccccc2c1)S(C)(=O)=O` [Compound 28c, N-methyl-N-[2-(β-naphthylmethoxy) 4-nitrophenyl]methanesulfonamide]: the melting point fell in the range of 119 to 121 °C. Besides, the CYP19 gene expression entry in series [1] is on record as “significantly decreased CYP19 gene expression”. The “cell cytotoxicity (MTT)” value with SK-BR-3 cells [2] is “did not cause significant cell cytotoxicity”. Besides, the apoptotic effects entry in the series with SK-BR-3 cells [3] is given as “do not produce apoptotic effects”.
For `CN(c1ccc([N+](=O)[O-])cc1OCc1ccccc1-c1ccccc1)S(C)(=O)=O` [Compound 29c, N-methyl-N-[2-(2′-phenylbenzyloxy)-4-nitrophenyl]methanesulfonamide], the melting point lay within 128 to 129 °C. In addition, the CYP19 gene expression result in series [1] was “significantly decreased CYP19 gene expression”. Further, the “cell cytotoxicity (MTT)” value with SK-BR-3 cells [2] is “did not cause significant cell cytotoxicity”. For the same compound, the apoptotic effects result in the series with SK-BR-3 cells [3] is “do not produce apoptotic effects”.
`Cc1ccc(COc2cc([N+](=O)[O-])ccc2N(C)S(C)(=O)=O)cc1` [Compound 30c, N-methyl-N-[2-(4′-methylbenzyloxy)-4-nitrophenyl]methanesulfonamide] displayed a melting point of 96 to 98 °C. Further, in the series on SK-BR-3 cells [2], the “cell cytotoxicity (MTT)” value is “did not cause significant cell cytotoxicity”. In addition, the apoptotic effects entry with SK-BR-3 cells [3] was “do not produce apoptotic effects”.
In the case of `CN(c1ccc([N+](=O)[O-])cc1OCc1ccc(F)cc1)S(C)(=O)=O` [Compound 33c, N-methyl-N-[2-(4′-fluorobenzyloxy)-4-nitrophenyl]methanesulfonamide], the melting point was 168 to 169 °C. In series [1], the CYP19 gene expression result is “significantly decreased CYP19 gene expression”. Besides, the “cell cytotoxicity (MTT)” value with SK-BR-3 cells [2] is listed as “did not cause significant cell cytotoxicity”. Moreover, in the series with SK-BR-3 cells [3], the apoptotic effects entry is “do not produce apoptotic effects”.
